Among the test systems are BT-549 breast; SK-MEL-5 melanoma; SR leukemia; HL-60(TB) leukemia; NCI/ADR-RES ovarian; OVCAR-3 ovarian; UACC-62 melanoma; NCI-H23 lung; DMS 114 small cell lung; KM20L2 colon; DMS 273 small cell lung.
Holding throughout (experiment): growth of human tumour cells (NCI), 48 h

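Interpolation was linear, between the two tested concentrations surrounding the appropriate level; five concentrations were tested over 48 hours in 96-well plates. TGI marks complete inhibition of growth.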 A value given as a limit tells only on which side of the number the result lay.

Consider `CN1C/C(=C\c2cccs2)C2=NN(c3ccccc3)C(c3cccs3)C2C1` (centres undefined), for which the TGI was over 100 µM with BT-549 breast; over 100 µM with SK-MEL-5 melanoma; over 100 µM with SR leukemia; 4.45 µM in the experiment with HL-60(TB) leukemia; over 100 µM with NCI/ADR-RES ovarian; over 21.8 µM in the experiment on OVCAR-3 ovarian. For the same compound, the TGI in the experiment with UACC-62 melanoma and in the experiment on NCI-H23 lung was over 100 µM in each case.

For `Nc1cc(CO)cc(Nc2c3ccccc3nc3ccccc23)c1`, the TGI is 27.7 µM in the experiment with BT-549 breast; 30.8 µM in the experiment on SK-MEL-5 melanoma; over 100 µM in the experiment on SR leukemia; over 100 µM in the experiment on HL-60(TB) leukemia; 35.8 µM with NCI/ADR-RES ovarian; 32.2 µM with OVCAR-3 ovarian. In addition, the TGI with UACC-62 melanoma was 34.5 µM; in the experiment with NCI-H23 lung it was 30.1 µM.

Take `COc1ccc(-c2c(C#N)c(N)[nH]c(=S)c2C#N)cc1`: the TGI was 85.4 µM with BT-549 breast; over 100 µM in the experiment on SK-MEL-5 melanoma; over 100 µM with SR leukemia; 69.2 µM in the experiment with HL-60(TB) leukemia; over 100 µM in the experiment with NCI/ADR-RES ovarian; over 100 µM with OVCAR-3 ovarian. Moreover, the TGI with UACC-62 melanoma and with NCI-H23 lung was over 100 µM throughout.

Take `NCCCn1c(Cl)nc2ccccc21`: the TGI in the experiment on BT-549 breast, with SK-MEL-5 melanoma, in the experiment on SR leukemia, in the experiment on HL-60(TB) leukemia, in the experiment with NCI/ADR-RES ovarian and in the experiment on OVCAR-3 ovarian was over 100 µM throughout. Also, the TGI with UACC-62 melanoma and in the experiment on NCI-H23 lung was over 100 µM throughout.

For the compound `CCCC(=O)OCC1OC(n2cc(F)c(=O)[nH]c2=O)CC1OC(=O)CCC` (centres undefined), the TGI is over 10 µM with BT-549 breast; 2.39 µM in the experiment on SK-MEL-5 melanoma; over 10 µM in the experiment on SR leukemia; over 10 µM in the experiment with HL-60(TB) leukemia; over 10 µM in the experiment on NCI/ADR-RES ovarian; over 10 µM with OVCAR-3 ovarian. The TGI in the experiment on UACC-62 melanoma was over 10 µM; in the experiment on NCI-H23 lung, 5.02 µM.

`CCC1(CC)C(=O)NC(=O)NC1=S`: the TGI in the experiment with HL-60(TB) leukemia, with OVCAR-3 ovarian, in the experiment with DMS 114 small cell lung, in the experiment with KM20L2 colon, in the experiment on DMS 273 small cell lung and in the experiment on UACC-62 melanoma was over 100 µM throughout. The TGI in the experiment with NCI-H23 lung is over 100 µM.

`CC(C#N)(NO)C(C)(C#N)NO` (centres undefined): the TGI in the experiment with BT-549 breast, with SK-MEL-5 melanoma, in the experiment with SR leukemia, in the experiment with HL-60(TB) leukemia, in the experiment on NCI/ADR-RES ovarian and with OVCAR-3 ovarian was over 100 µM each time. The TGI with UACC-62 melanoma and in the experiment on NCI-H23 lung was over 100 µM throughout.

Turning to `CC(=O)C1=C(C)N(c2ccccc2)C2(O)C3=C(C(=O)c4ccccc4C3=O)C(O)=CC12Cl` (centres undefined), the TGI in the experiment with BT-549 breast was 30.3 µM; in the experiment on SK-MEL-5 melanoma, 9.04 µM; in the experiment on SR leukemia, 12.3 µM; in the experiment on HL-60(TB) leukemia, 49 µM; with NCI/ADR-RES ovarian, over 100 µM; in the experiment on OVCAR-3 ovarian, over 100 µM. For the same compound, the TGI in the experiment with UACC-62 melanoma was determined as 73.9 µM; with NCI-H23 lung it was 39.9 µM.

As for `COc1cc2c(cc1OC)C(CCN)=NCC2`, the TGI was 33.6 µM with BT-549 breast; 35.6 µM in the experiment with SK-MEL-5 melanoma; 23.8 µM in the experiment with SR leukemia; 2.06 µM in the experiment on HL-60(TB) leukemia; over 69 µM in the experiment on NCI/ADR-RES ovarian; 35.2 µM in the experiment with OVCAR-3 ovarian. The TGI worked out at 34.4 µM in the experiment with UACC-62 melanoma and 34.3 µM with NCI-H23 lung.

In the case of `COc1ccc(-c2cc(-c3ccc(C)cc3)n(C3OC(COC(C)=O)C(OC(C)=O)C(OC(C)=O)C3OC(C)=O)c(=S)c2C#N)cc1` (centres undefined), the TGI in the experiment on BT-549 breast, with SK-MEL-5 melanoma, in the experiment with SR leukemia, with HL-60(TB) leukemia, with NCI/ADR-RES ovarian and in the experiment on OVCAR-3 ovarian was over 100 µM in each case. For the same compound, the TGI with UACC-62 melanoma and in the experiment with NCI-H23 lung was over 100 µM each time.

`Cc1cccc2c(=O)c3cccc([C@H](C)C(=O)O)c3oc12`: the TGI in the experiment with BT-549 breast, with SK-MEL-5 melanoma, in the experiment on SR leukemia, with HL-60(TB) leukemia, in the experiment with NCI/ADR-RES ovarian and in the experiment on OVCAR-3 ovarian was over 100 µM in each case. In addition, the TGI in the experiment on UACC-62 melanoma and in the experiment on NCI-H23 lung was over 100 µM throughout.

As to `COC(=O)[C@@]12CSC[C@]1(C(=O)OC)N[C@@H](c1ccccc1O)C2`, the TGI in the experiment with BT-549 breast, with SK-MEL-5 melanoma, in the experiment with SR leukemia, in the experiment on HL-60(TB) leukemia, in the experiment with NCI/ADR-RES ovarian and in the experiment with OVCAR-3 ovarian was over 100 µM each time. For the same compound, the TGI in the experiment on UACC-62 melanoma and in the experiment with NCI-H23 lung was over 100 µM in each case.

`Nc1nnc(N)n1N`: the TGI with SK-MEL-5 melanoma, in the experiment with SR leukemia, in the experiment on HL-60(TB) leukemia, in the experiment on DMS 114 small cell lung, with DMS 273 small cell lung and in the experiment on UACC-62 melanoma was over 100 µM throughout. In the experiment on NCI-H23 lung, this compound had a TGI of over 100 µM.

As to `CC(C)CC1c2[nH]c3ccccc3c2C[C@H]2C(=O)NC(Cc3c[nH]c4ccccc34)C(=O)N12` (some centres undefined), the TGI in the experiment on BT-549 breast came out at 36.2 µM; in the experiment with SK-MEL-5 melanoma, 26 µM; with SR leukemia it was 45.5 µM; in the experiment with HL-60(TB) leukemia, 40.9 µM; in the experiment with NCI/ADR-RES ovarian it was 56.4 µM; with OVCAR-3 ovarian, 30.5 µM. In addition, the TGI was found to be 36 µM with UACC-62 melanoma and 40 µM in the experiment on NCI-H23 lung.

Take `COC(=O)C1(Cc2ccc3c(c2)CCC3)Cc2ccc3c(c2C1=O)CCC3` (centres undefined): the TGI with BT-549 breast was over 46.1 µM; in the experiment with SK-MEL-5 melanoma, 28.2 µM; in the experiment on SR leukemia, 7.76 µM; with HL-60(TB) leukemia, 8.83 µM; with NCI/ADR-RES ovarian, 13.8 µM; with OVCAR-3 ovarian it was 52.8 µM. Further, the TGI in the experiment on UACC-62 melanoma is over 48.5 µM; with NCI-H23 lung, over 71.6 µM.

For the compound `CCOC(=O)NC(Nc1ccc(F)cc1F)(C(F)(F)F)C(F)(F)F`, the TGI in the experiment with BT-549 breast, with SK-MEL-5 melanoma, in the experiment with SR leukemia, with HL-60(TB) leukemia, with NCI/ADR-RES ovarian and in the experiment with OVCAR-3 ovarian was over 100 µM in each case. The TGI in the experiment on UACC-62 melanoma and in the experiment on NCI-H23 lung was over 100 µM in each case.

As for `O=C(CCCc1cccc2[nH]c3c(c12)CN(Cc1ccccc1)CC3)c1ccc(F)cc1`, the TGI in the experiment on BT-549 breast is over 100 µM; in the experiment with SK-MEL-5 melanoma, 45.8 µM; in the experiment on SR leukemia, over 100 µM; in the experiment on HL-60(TB) leukemia, 10.3 µM; in the experiment on NCI/ADR-RES ovarian, over 100 µM; with OVCAR-3 ovarian it was over 100 µM. The TGI in the experiment with UACC-62 melanoma is over 100 µM; with NCI-H23 lung it was over 52.3 µM.

In the case of `CCO/N=C\c1ccc2oc(-c3ccccc3)cc(=O)c2c1`, the TGI in the experiment on BT-549 breast stood at 24.4 µM; in the experiment on SK-MEL-5 melanoma it was 5.54 µM; in the experiment on SR leukemia, 1.99 µM; in the experiment on HL-60(TB) leukemia it was 12.2 µM; with NCI/ADR-RES ovarian, 0.436 µM; with OVCAR-3 ovarian it was 0.913 µM. Also, the TGI with UACC-62 melanoma came out at 33.9 µM; in the experiment with NCI-H23 lung, 9.05 µM.

Take `Cc1ccc(C(=O)Nc2ccc(S(=O)(=O)O)c3cc(S(=O)(=O)O)cc(S(=O)(=O)O)c23)cc1NC(=O)c1cccc(NC(=O)Nc2cccc(C(=O)Nc3cc(C(=O)Nc4ccc(S(=O)(=O)O)c5cc(S(=O)(=O)O)cc(S(=O)(=O)O)c45)ccc3C)c2)c1`: the TGI with BT-549 breast, in the experiment with SK-MEL-5 melanoma, in the experiment on SR leukemia, with HL-60(TB) leukemia, in the experiment on NCI/ADR-RES ovarian and in the experiment with OVCAR-3 ovarian was over 100 µM in each case. The TGI in the experiment with DMS 114 small cell lung, in the experiment on KM20L2 colon, in the experiment on DMS 273 small cell lung, with UACC-62 melanoma and with NCI-H23 lung was over 100 µM each time.

In the case of `O=[N+]([O-])c1ccc(C[P+]2(c3ccccc3)CCCCC2)cc1` (tested in a mixture with another compound), the TGI with SK-MEL-5 melanoma is 84.2 µM; in the experiment with HL-60(TB) leukemia, over 100 µM; with OVCAR-3 ovarian, over 100 µM; with DMS 114 small cell lung it was over 100 µM; in the experiment with DMS 273 small cell lung it was over 100 µM; in the experiment with UACC-62 melanoma, over 100 µM. The TGI in the experiment with NCI-H23 lung is over 100 µM.

Consider `COc1ccc(SCc2cc(OC)ccc2OC)cc1`, for which the TGI was over 74.3 µM with BT-549 breast; 98.9 µM in the experiment on SK-MEL-5 melanoma; over 100 µM in the experiment with SR leukemia; over 100 µM in the experiment with HL-60(TB) leukemia; over 100 µM with NCI/ADR-RES ovarian; over 91.7 µM with OVCAR-3 ovarian. The TGI in the experiment with UACC-62 melanoma and in the experiment with NCI-H23 lung was over 100 µM each time.

For `O=C1CCCC2=C1CC1=C(CCCC1=O)N2c1ccc(Cl)cc1`, the TGI with BT-549 breast, in the experiment with SK-MEL-5 melanoma, with SR leukemia, with HL-60(TB) leukemia, with NCI/ADR-RES ovarian and in the experiment on OVCAR-3 ovarian was over 100 µM throughout. In addition, the TGI in the experiment with UACC-62 melanoma and with NCI-H23 lung was over 100 µM in each case.

In the case of `Cc1cc2ncn(CC(=O)O)c2cc1C`, the TGI in the experiment with BT-549 breast, in the experiment on SK-MEL-5 melanoma, with SR leukemia, in the experiment with HL-60(TB) leukemia, with NCI/ADR-RES ovarian and in the experiment with OVCAR-3 ovarian was over 100 µM in each case. The TGI with UACC-62 melanoma and in the experiment on NCI-H23 lung was over 100 µM throughout.
